In patent US8927462B2, “Method for identifying HLA complexes associated with adverse drug reactions” (Academia Sinica, priority 2010, dated 2015):

Experiments:
[1] = molecular target: HLA-B*4001 (Homo sapiens, UniProt P01889, A65T/A93T/A95T/D138N/D98Y/E176V/E69K/N87E/Q56L/Q94N/R180L/S121R/S35A/S48T/T167S/V36M/W171L/Y33H/Y91S); assay: Surface plasmon resonance (SPR) binding to soluble HLA-B*4001; details: for binding to other HLA-B molecules (SPR): HLA-B*4001: at therapeutic concentrations
[2] = molecular target: HLA-B*5101 (Homo sapiens, UniProt P01889, A329T/A93T/A95T/C349S/D138N/D201E/D98Y/E187L/E204Q/E69T/G107R/I218V/K202T/L105A/L119W/N104I/Q94N/R106L/R155S/R180L/S101N/S121T/S35A/S48A/V306I/V36M/Y195H/Y91F); assay: Surface plasmon resonance (SPR) binding to soluble HLA-B*5101; details: for binding to other HLA-B molecules (SPR): HLA-B*5101: at therapeutic concentrations
[3] = molecular target: T1, HLA-B*1501 (Homo sapiens, UniProt P01889, A329T/A93T/A95T/C349S/D201E/D98Y/E187L/E204Q/E69M/E70A/K202T/N87E/Q94N/R155S/R180W/S121R/S35A/S48A/V306I/V36M/Y140S/Y91S); assay: Surface plasmon resonance (SPR) binding to soluble HLA-B*1501; details: for binding to other HLA-B molecules (SPR): HLA-B*1501: at therapeutic concentrations
T1 construct: Complexes containing soluble HLA-B*1501 or 1503 and β2-microglobulin were prepared following the same procedure described above; made in house

[4] = molecular target: HLA-B*1503 (Homo sapiens, UniProt P01889, A329T/A93T/A95T/C349S/D201E/D98Y/E187L/E204Q/K202T/N87E/Q94N/R155S/R180L/S121R/S35A/V306I/V36M/Y140S/Y91S); assay: Surface plasmon resonance (SPR) binding to soluble HLA-B*1503; details: for binding to other HLA-B molecules (SPR): HLA-B*1503: at therapeutic concentrations
[5] = test system: CBZ-specific CD8+ T cells; assay: [3H] thymidine incorporation assay, T cell proliferation with fixed and non-fixed B-LCLs; format: cell-based, human; details: fixed and unfixed autologous B-LCL; FIG. 4
Method: (§1) PBMC were isolated by the density-gradient Ficoll-Paque method according to the manufacturer's instructions (GE Healthcare Company, Piscataway, N.J., USA). […] After 3˜4 times of restimulation, CD8^+ T cells were sorted out for further functional assays. T cells were cultured with RPMI-HS medium consisted of RPMI 1640 supplemented with 10% heat-inactivated human type AB serum (Labquid Inc, Ontario, Calif.) and 50 U/ml IL-2 (R&D Systems, Minneapolis, Minn., USA). EBV-transformed B-cell lines (B-LCL) were generated by transforming the donor's PBMCs with supernatant from the EBV-producing cell lines B9-85.
Irradiated APCs (10^3) and T cells (10^4) were incubated with a test compound for 48 hours, and the proliferation of T cells was measured by incorporation of [^3H] thymidine. For fixation assay, autologous B-LCLs were pretreated with 0.05% paraformaldehyde for 30 s. For pulsing experiments, drugs were preincubated with B-LCLs overnight. B-LCLs were washed repeatedly to remove noncovalently bound drug, and then incubated with T cells.

[6] = test system: peptides bound to the soluble HLA-B*1502-β2-microglobulin complex; assay: Analysis of HLA-B-bound drug-modified peptides by liquid chromatography-tandem mass spectrometry (C1R-HLA-B*1502 clone treated with CBZ); parameters: species or system human; details: C1R-HLA-B*1502 culture, 50 μg/mL for 48 hours; LC-tandem MS of <3-kDa fraction
[7] = test system: autologous B-LCL cells; assay: 51Cr-release cytotoxicity assay, CBZ-specific CD8+ T cells against drug-pulsed autologous B-LCL; format: cell-based, human; details: B-LCL pulsed with 25 μg/ml drug overnight at 37° C. and washed out before the cytotoxicity assay; FIG. 3
Method: as §1
Irradiated APCs (10^3) and T cells (10^4) were incubated with a test compound for 48 hours, and the proliferation of T cells was measured by incorporation of [^3H] thymidine. For fixation assay, autologous B-LCLs were pretreated with 0.05% paraformaldehyde for 30 s. For pulsing experiments, drugs were preincubated with B-LCLs overnight. […]
B-LCLs, preincubated with IFN-γ (R&D Systems, Minneapolis, Minn., USA) overnight, were first incubated with ^51Cr (Perkin Elmer, Waltham, Mass., USA) for 1 hr at 37° C. […] Radioactivity in the supernatant from each wells was measured by a Topcount (Packard Biosciences, Meriden, Conn., USA). The percentage of specific lysis was calculated as follows: (^51Cr release in the test well−spontaneous ^51Cr release)/(maximum ^51Cr release−spontaneous ^51Cr release).

| Structure (SMILES) | binding to other HLA-B molecules (SPR): HLA-B*4001 [1] | binding to other HLA-B molecules (SPR): HLA-B*5101 [2] | binding to other HLA-B molecules (SPR): HLA-B*1501 [3] | binding to other HLA-B molecules (SPR): HLA-B*1503 [4] | presentation by B-LCL and activation (proliferation) of CBZ-specific CD8+ T cells [5] | covalent binding of drug to HLA-B*1502-bound peptides [6] | binding to HLA-B*4001 (SPR) ([1]; FIG. 6) | response (specific lysis) of CBZ-specific CD8+ T cells to pulsed autologous B-LCL [7] | binding to HLA-B*5101 (SPR) ([2]; FIG. 6) | binding to HLA-B*1501 (SPR) ([3]; FIG. 6) | binding to HLA-B*1503 (SPR) ([4]; FIG. 6) |
| --- | --- | --- | --- | --- | --- | --- | --- | --- | --- | --- | --- |
| CC[C@@H](C(N)=O)N1CCCC1=O [LEV, levetiracetam] | did not bind | did not bind | did not bind | did not bind | – | – | – | – | – | – | – |
| NCC1(CC(=O)O)CCCCC1 [GAB, gabapentin] | did not bind | did not bind | did not bind | did not bind | negative results | – | – | – | – | – | – |
| CC1(C)O[C@@H]2[C@@H](CO[C@@]3(COS(N)(=O)=O)OC(C)(C)O[C@@H]23)O1 [TOP, topiramate] | did not bind | did not bind | did not bind | did not bind | – | – | – | – | – | – | – |
| NC(=O)N1c2ccccc2C=Cc2ccccc21 [CBZ, carbamazepine] | – | – | – | – | able to be presented by both fixed and unfixed autologous B-LCL and activated | does not covalently bind to peptides | did not bind | none of the CBZ-specific CD8^+ T cells responded | did not bind | neither CBZ nor its seven analogs (see the Compounds section above) binds | neither CBZ nor its seven analogs (see the Compounds section above) binds |
